# From patent publication US7202219B1, “Use of D-tagatose as a prebiotic food component” (priority 1998, dated 2007)
# Legend:
# human faecal incubations = conditions: cited from earlier work; for proportion of butyrate on fermentation: human faecal in vitro system (Mortensen et al. 1988)
# intestinal bacteria = test: Counts of intestinal bacteria in faeces on selective media (Example 4); assay type: in vivo; conditions: human volunteers, 3×10 g D-tagatose pr day for 14 days versus before intake (FIG. 5)
# Description: (§1) In this study 16 human volunteers deliver a faeces sample before any intake of D-tagatose (unadapted) and another faeces sample after 14 days' intake of 3×10 g of D-tagatose pr day (adapted). The 16 volunteers are on controlled diet 4 days before the delivery of each faeces samples. Faeces slurries, 20%, were incubated at 37° C. and anaerobic conditions for 48 hours with or without 1% D-tagatose added. Samples for determination of SCFA were taken after 4 hours and after 48 hours of incubation. The amount of SCFA produced by D-tagatose is calculated as the amount produced in the assay with 1% D-tagatose added subtracted by the amount produced in the assay without D-tagatose. Further, the delivered faeces samples were tested for content of various intestinal bacteria counts by spreading on selective media.
# [1] = tested on: content from the 8 sections; test: 12 hour in vitro incubation of content from gut sections, no D-tagatose added (Example 2); assay type: cell-based, pig
# Description: (§2) In this study, 3 groups of each 2 pigs were having a standard pig diet+20% sucrose, a standard pig diet+10% sucrose+10% D-tagatose, and a standard pig diet+20% D-tagatose for 33 days. The pigs were killed on the 33. day 6 hours after morning feeding, and the entire gastrointestinal tract was divided into 8 segments.
# (§3) The concentrations of the various SCFA were measured in the 8 sections immediately after killing, and further the content from the 8 sections was used for 12 hour in vitro incubations at 37° C. and anaerobic conditions. In this in vitro assay no D-tagatose was added, and the fermentation products originate from unabsorbed D-tagatose and other undigestible food components from the diets.
# The data presented here are normalized to production of SCFA pr kg feed.
# human faeces = test: In vitro fermentation of tagatose by incubation of human faeces (Example 4); assay type: cell-based
# Description: as §1
# colon content = test: In vitro fermentation of D-tagatose by pig caecum/colon content slurries (Example 1); assay type: cell-based; conditions: for Tagatose degradation: in vitro incubation; for Mole % of SCFA after microbial fermentation of D-Tagatose: Acetate / Mole % of SCFA after microbial fermentation of D-Tagatose: Butyrate / Mole % of SCFA after microbial fermentation of D-Tagatose: Capronate / Mole % of SCFA after microbial fermentation of D-Tagatose: Formate / Mole % of SCFA after microbial fermentation of D-Tagatose: Heptanoate / Mole % of SCFA after microbial fermentation of D-Tagatose: Propionate / Mole % of SCFA after microbial fermentation of D-Tagatose: Valerate: 1% tagatose added, 0–4 h
# Description: In the study, one group of 8 pigs was having a standard diet+15% sucrose (unadapted), and another group of 8 pigs was fed a standard diet+5% sucrose+10% D-tagatose (adapted) for 17 days.
# On the 17. day the pigs were killed 3 hours after the morning feeding, and the entire gastrointestinal tract was sectioned. […] 20% slurries were incubated at 37° C. and anaerobic conditions for 4 hours with or without 1% D-tagatose added. The amount of SCFA produced by D-tagatose is calculated as the amount produced in the assay with 1% D-tagatose added subtracted by the amount produced in the assay without D-tagatose.
# [2] = oral; cited from earlier work
# [3] = In vivo absorption of SCFA in the blood (Example 3); design: species or system pig
# Description: In this pig study the in vivo absorption of SCFA in the blood is measured by taking blood samples simultaneously from 3 catheters in Vena Mesenterica, Ateria mesenterica and Vena Porta over a 12 hour period after the morning feeding. The absorption is measured in the same 5 pigs at 3 different occasions, that is after 7 days adaptation to standard pig diet+20% sucrose (sucrose), the first day of switching to a standard pig diet+20% D-tagatose (unadapted), and after 7 days adaptation to a standard pig diet+20% D-tagatose (adapted). The concentration of SCFA's is determined in samples from the portal vein, that is the blood stream leading from the digestive system to the liver, and in the arterial blood, that is the blood stream before the digestive system. The difference between the two integrated by time is a measure of the intestinal absorption of SCFA's.
# The area between the 2 curves is equal to the total absorption of butyrate from the intestine.
# [4] = Concentration of butyrate in gastrointestinal sections at slaughtering (Example 2); assay type: in vivo, pig; conditions: pigs, 0, 10 or 20% D-tagatose in diet for 33 days; hind gut (FIG. 1)
# Description: as §2, §3
# [5] = normalized pr kg feed, 0, 10 or 20% D-tagatose in diet (FIG. 3)
# [6] = 4 hours of incubation, Non-adapted
# [7] = 48 hours of incubation, Adapted
# [8] = 48 hours of incubation, Non-adapted
# [9] = addition of D-tagatose to the diet
# [10] = pigs after 7 days of adaptation to 20% D-tagatose diet (FIG. 4)
compound,measurement,setting,value
O=C(O)[C@H]1OC(O)[C@H](O)[C@@H](O)[C@@H]1O (some centres unmarked) [glucoronic acid],proportion of butyrate on fermentation,human faecal incubations,high proportion of butyrate
O=C[C@H](O)[C@@H](O)[C@@H](O)[C@H](O)C(=O)O [galacturonic acid],proportion of butyrate on fermentation,human faecal incubations,high proportion of butyrate
O=C(CO)[C@@H](O)[C@@H](O)[C@H](O)CO [D-tagatose],entero-bacteria in faeces,intestinal bacteria,decreased
same,number of lactic acid bacteria in faeces,intestinal bacteria,increased in number
same,number of lactobacilli in faeces,intestinal bacteria,increased in number
same,12 hour in vitro production of butyrate,"[1]; content from gut sections of pigs on 0, 10 or 20% D-tagatose diet (FIG. 2)",acting in a dose response manner
same,total 12 hour in vitro production of SCFA in the gut: acetate,[1]; [5],not influenced
same,total 12 hour in vitro production of SCFA in the gut: butyrate,[1]; [5],in a dose response manner promote the microbiological production of butyrate
same,Molar Ratios (Mole %) of SCFA's: Acetic acid,"human faeces; 4 hours of incubation, Adapted",42.1 Mole %
same,Molar Ratios (Mole %) of SCFA's: Butyric acid,"human faeces; 4 hours of incubation, Adapted",34.7 Mole %
same,Molar Ratios (Mole %) of SCFA's: Capronic acid,"human faeces; 4 hours of incubation, Adapted",3.5 Mole %
same,Molar Ratios (Mole %) of SCFA's: Formic acid,"human faeces; 4 hours of incubation, Adapted",5.8 Mole %
same,Molar Ratios (Mole %) of SCFA's: Heptanic acid,"human faeces; 4 hours of incubation, Adapted",0.6 Mole %
same,Molar Ratios (Mole %) of SCFA's: Lactic acid,"human faeces; 4 hours of incubation, Adapted",9.0 Mole %
same,Molar Ratios (Mole %) of SCFA's: Propionic acid,"human faeces; 4 hours of incubation, Adapted",4.1 Mole %
same,Molar Ratios (Mole %) of SCFA's: Valeric acid,"human faeces; 4 hours of incubation, Adapted",1.0 Mole %
same,Total SCFA (production mmol/l),"human faeces; 4 hours of incubation, Adapted",24.3 mmol/L
same,Molar Ratios (Mole %) of SCFA's: Acetic acid,human faeces; [6],62.8 Mole %
same,Molar Ratios (Mole %) of SCFA's: Butyric acid,human faeces; [6],24.5 Mole %
same,Molar Ratios (Mole %) of SCFA's: Capronic acid,human faeces; [6],6.7 Mole %
same,Molar Ratios (Mole %) of SCFA's: Formic acid,human faeces; [6],0.5 Mole %
same,Molar Ratios (Mole %) of SCFA's: Heptanic acid,human faeces; [6],1.1 Mole %
same,Molar Ratios (Mole %) of SCFA's: Lactic acid,human faeces; [6],3.9 Mole %
same,Molar Ratios (Mole %) of SCFA's: Propionic acid,human faeces; [6],0.0 Mole %
same,Molar Ratios (Mole %) of SCFA's: Valeric acid,human faeces; [6],3.0 Mole %
same,Total SCFA (production mmol/l),human faeces; [6],8.8 mmol/L
same,Molar Ratios (Mole %) of SCFA's: Acetic acid,human faeces; [7],35.3 Mole %
same,Molar Ratios (Mole %) of SCFA's: Butyric acid,human faeces; [7],47.0 Mole %
same,Molar Ratios (Mole %) of SCFA's: Capronic acid,human faeces; [7],13.5 Mole %
same,Molar Ratios (Mole %) of SCFA's: Formic acid,human faeces; [7],0.1 Mole %
same,Molar Ratios (Mole %) of SCFA's: Heptanic acid,human faeces; [7],1.2 Mole %
same,Molar Ratios (Mole %) of SCFA's: Lactic acid,human faeces; [7],3.0 Mole %
same,Molar Ratios (Mole %) of SCFA's: Propionic acid,human faeces; [7],0.5 Mole %
same,Molar Ratios (Mole %) of SCFA's: Valeric acid,human faeces; [7],1.6 Mole %
same,Total SCFA (production mmol/l),human faeces; [7],44.0 mmol/L
same,Molar Ratios (Mole %) of SCFA's: Acetic acid,human faeces; [8],37.7 Mole %
same,Molar Ratios (Mole %) of SCFA's: Butyric acid,human faeces; [8],38.7 Mole %
same,Molar Ratios (Mole %) of SCFA's: Capronic acid,human faeces; [8],15.2 Mole %
same,Molar Ratios (Mole %) of SCFA's: Formic acid,human faeces; [8],0.0 Mole %
same,Molar Ratios (Mole %) of SCFA's: Heptanic acid,human faeces; [8],1.6 Mole %
same,Molar Ratios (Mole %) of SCFA's: Lactic acid,human faeces; [8],8.6 Mole %
same,Molar Ratios (Mole %) of SCFA's: Propionic acid,human faeces; [8],0.0 Mole %
same,Molar Ratios (Mole %) of SCFA's: Valeric acid,human faeces; [8],1.2 Mole %
same,Total SCFA (production mmol/l),human faeces; [8],49.0 mmol/L
same,time of adaptation in the in vitro incubation system,"human faeces; human faeces slurry, 1% D-tagatose",≤ 48 h
same,Tagatose degradation,"colon content; Control pigs (unadapted), colon",1.1 g/h/kg digesta
same,Mole % of SCFA after microbial fermentation of D-Tagatose: Acetate,"colon content; Control pigs, caecum",54.8 Mole %
same,Mole % of SCFA after microbial fermentation of D-Tagatose: Butyrate,"colon content; Control pigs, caecum",18.2 Mole %
same,Mole % of SCFA after microbial fermentation of D-Tagatose: Capronate,"colon content; Control pigs, caecum",2.0 Mole %
same,Mole % of SCFA after microbial fermentation of D-Tagatose: Formate,"colon content; Control pigs, caecum",2.5 Mole %
same,Mole % of SCFA after microbial fermentation of D-Tagatose: Heptanoate,"colon content; Control pigs, caecum",0.2 Mole %
same,Mole % of SCFA after microbial fermentation of D-Tagatose: Propionate,"colon content; Control pigs, caecum",11.2 Mole %
same,Mole % of SCFA after microbial fermentation of D-Tagatose: Valerate,"colon content; Control pigs, caecum",11.1 Mole %
same,Tagatose degradation,"colon content; Control pigs, caecum",2.7 g/h/kg digesta
same,Mole % of SCFA after microbial fermentation of D-Tagatose: Acetate,"colon content; Control pigs, colon",70.1 Mole %
same,Mole % of SCFA after microbial fermentation of D-Tagatose: Butyrate,"colon content; Control pigs, colon",16.7 Mole %
same,Mole % of SCFA after microbial fermentation of D-Tagatose: Capronate,"colon content; Control pigs, colon",4.8 Mole %
same,Mole % of SCFA after microbial fermentation of D-Tagatose: Formate,"colon content; Control pigs, colon",0.0 Mole %
same,Mole % of SCFA after microbial fermentation of D-Tagatose: Heptanoate,"colon content; Control pigs, colon",0.6 Mole %
same,Mole % of SCFA after microbial fermentation of D-Tagatose: Propionate,"colon content; Control pigs, colon",0.0 Mole %
same,Mole % of SCFA after microbial fermentation of D-Tagatose: Valerate,"colon content; Control pigs, colon",7.8 Mole %
same,Tagatose degradation,"colon content; D-tagatose pigs (adapted), colon",15.3 g/h/kg digesta
same,Mole % of SCFA after microbial fermentation of D-Tagatose: Acetate,"colon content; D-tagatose pigs, caecum",21.5 Mole %
same,Mole % of SCFA after microbial fermentation of D-Tagatose: Butyrate,"colon content; D-tagatose pigs, caecum",21.8 Mole %
same,Mole % of SCFA after microbial fermentation of D-Tagatose: Capronate,"colon content; D-tagatose pigs, caecum",1.9 Mole %
same,Mole % of SCFA after microbial fermentation of D-Tagatose: Formate,"colon content; D-tagatose pigs, caecum",14.4 Mole %
same,Mole % of SCFA after microbial fermentation of D-Tagatose: Heptanoate,"colon content; D-tagatose pigs, caecum",0.0 Mole %
same,Mole % of SCFA after microbial fermentation of D-Tagatose: Propionate,"colon content; D-tagatose pigs, caecum",17.0 Mole %
same,Mole % of SCFA after microbial fermentation of D-Tagatose: Valerate,"colon content; D-tagatose pigs, caecum",23.4 Mole %
same,Tagatose degradation,"colon content; D-tagatose pigs, caecum",3.7 g/h/kg digesta
same,Mole % of SCFA after microbial fermentation of D-Tagatose: Acetate,"colon content; D-tagatose pigs, colon",23.3 Mole %
same,Mole % of SCFA after microbial fermentation of D-Tagatose: Butyrate,"colon content; D-tagatose pigs, colon",46.3 Mole %
same,Mole % of SCFA after microbial fermentation of D-Tagatose: Capronate,"colon content; D-tagatose pigs, colon",6.8 Mole %
same,Mole % of SCFA after microbial fermentation of D-Tagatose: Formate,"colon content; D-tagatose pigs, colon",3.7 Mole %
same,Mole % of SCFA after microbial fermentation of D-Tagatose: Heptanoate,"colon content; D-tagatose pigs, colon",0.8 Mole %
same,Mole % of SCFA after microbial fermentation of D-Tagatose: Propionate,"colon content; D-tagatose pigs, colon",4.0 Mole %
same,Mole % of SCFA after microbial fermentation of D-Tagatose: Valerate,"colon content; D-tagatose pigs, colon",15.1 Mole %
same,butyrate in SCFA profile,colon content; colon content from unadapted pigs,less than 20%
same,ingested D-tagatose absorbed in the small intestine,[2],15–20%
same,total absorption of butyrate (area between portal and arterial curves),[3]; adapted versus unadapted to 20% D-tagatose diet,does not differ in the adapted and unadapted state
same,absorption of acetate,[3]; [9],not increased
same,absorption of propionate,[3]; [9],not increased
same,concentration of butyrate in arterial blood,[3]; [10],increasing
same,concentration of butyrate in the portal blood,[3]; [10],very steep increase a few hours after feeding
same,time of adaptation to butyrate production,"[3]; pigs in vivo, 20% D-tagatose diet",≤ 12 h
same,butyrate in the portal vein,"[3]; pigs unadapted, first day of 20% D-tagatose diet, 12 hours after feeding (FIG. 4)",gradually increasing over the 12 hours of measuring
same,concentration of butyrate in the various gastrointestinal sections at the time of slaughtering,[4],increasing in a dose response manner
OC[C@@H](O)[C@@H](O)[C@H](O)[C@@H](O)CO [sorbitol],proportion of butyrate on fermentation,human faecal incubations,high proportion of butyrate
OC[C@@H](O)[C@@H](O[C@H]1O[C@H](CO)[C@@H](O)[C@H](O)[C@H]1O)[C@H](O)[C@@H](O)CO [maltitol],butyrate on in vitro incubation,human faecal incubations; Rapaille and Bornet 1997,10%
